From US11897848B2, “Crystalline forms of ozanimod and processes for preparation thereof” (RECEPTOS LLC, priority 2016, dated 2024)
≈ marks a conversion by molar mass, not a printed value.

Legend:
Type in all cases: physicochemical
[1] = Hygroscopicity assessment by dynamic vapor sorption (DVS); conditions: for Weight Gain under 80% RH: DVS, 25° C.; for Hygroscopicity according to the criteria of hygroscopicity: based on weight gain under 80% RH
Description: Dynamic Vapor Sorption (DVS) is measured via an SMS (Surface Measurement Systems Ltd.) intrinsic DVS. Typical Parameters for DVS test are as follows: • Temperature: 25° C. • Gas and flow rate: N2, 200 mL/min • dm/dt: 0.002%/min • RH range: 0% RH to 95% RH
Dynamic vapor sorption (DVS) was applied to test hygroscopicity of Form CS9 with about 10 mg of samples. The DVS plot was substantially as depicted in FIG. 14.
Dynamic vapor sorption (DVS) was applied to test hygroscopicity of Form CS10 with about 10 mg of samples. The DVS plot is substantially as depicted in FIG. 15.
Dynamic vapor sorption (DVS) was applied to test hygroscopicity of Form CS11 with about 10 mg of samples. The DVS plot is substantially as depicted in FIG. 16.

[2] = Particle size distribution test (laser particle size analyzer, wet process); conditions: for MV (average particle size calculated by volume): dispersion medium Isopar G; for D10 / D50 / D90: volume distribution
Description: The particle size distribution test in the present disclosure is acquired by the S3500 laser particle size analyzer of Microtrac. Microtrac S3500 is equipped with the SDC (Sample Delivery Controller). The test is carried out by wet process, and the dispersion medium is Isopar G The parameters are as follow:
Certain amount of samples of Form CS9, Form CS10 and Form CS11 of ozanimod were taken for particle size distribution test.
The abbreviations used in the invention are explained as follows: • Mv: Average particle size calculated by volume. • D10: particle size which accounts for 10% of the particle size distribution (volume distribution). • D50: particle size which accounts for 50% of the particle size distribution (volume distribution), also known as the median diameter. • D90: particle size which accounts for 90% of the particle size distribution (volume distribution).

[3] = Stability assessment in chamber with controlled temperature and relative humidity (XRPD, HPLC); conditions: for Stability (verdict in words): after storage for 2 weeks
Description: Sample of Form CS10 was placed in chamber with controlled temperature and relative humidity at 40° C./75% RH for 2 weeks, and then the solids were sampled for XRPD test. The XRPD pattern overlay was substantially as depicted in FIG. 23 (from top to bottom: XRPD pattern of ozanimod Form CS10 before and after being stored under 40° C./75% RH for 2 weeks).
Two samples of Form CS11 of ozanimod were placed in chamber with controlled temperature and relative humidity at 25° C./60% RH and 40° C./75% RH for 2 weeks. XRPD and HPLC were used to test the crystalline form and chemical purity. The XRPD overlay pattern was substantially as depicted in FIG. 24 (from top to bottom: XRPD pattern of ozanimod Form CS11 before and after being stored under 25° C./60% RH and 40° C./75% RH for 2 weeks).

[4] = Solubility assessment in H2O, saturated solution measured by HPLC
Description: Form CS9 of ozanimod was suspended into H2O to obtain saturated solution. After being equilibrated for 1 h, 4 h and 24 h, concentrations of the saturated solutions were measured by HPLC.

Weight Gain under 80% RH [1] [%]	Hygroscopicity according to the criteria of hygroscopicity [1]	MV (average particle size calculated by volume) [2] [μm]	D10 [2] [μm]	D50 [2] [μm]	D90 [2] [μm]	Crystalline form change by XRPD ([3]; 25° C./60% RH for 2 weeks)	Crystalline form change by XRPD ([3]; 40° C./75% RH for 2 weeks)	Stability (verdict in words) [3]	Solubility in water (verdict in words) [4]	solubility at 1 h ([4]; water, thermodynamic from solid, equilibrated for 1 h) [µg/mL]	solubility at 4 h ([4]; water, thermodynamic from solid, equilibrated for 4 h) [µg/mL]	SMILES	Chemical purity change by HPLC ([3]; 25° C./60% RH for 2 weeks)	Chemical purity change by HPLC ([3]; 40° C./75% RH for 2 weeks)
0.57	slightly hygroscopic	137.7	27.13	110.4	286.6	No form change	No form change	good stability	–	–	–	CC(C)Oc1ccc(-c2nc(-c3cccc4c3CC[C@@H]4NCCO)no2)cc1C#N [Form CS11, ozanimod]	No form change and obvious purity decrease	No form change and obvious purity decrease
2.88	hygroscopic	339.9	50.97	284.3	728.7	–	–	–	good solubility in water	470 (≈ 1160 µM)	360 (≈ 890 µM)	CC(C)Oc1ccc(-c2nc(-c3cccc4c3CC[C@@H]4NCCO)no2)cc1C#N [Form CS9, ozanimod]	–	–
1.02	slightly hygroscopic	317.2	65.87	254.8	669.0	–	No form change	good stability	–	–	–	CC(C)Oc1ccc(-c2nc(-c3cccc4c3CC[C@@H]4NCCO)no2)cc1C#N [Form CS10, ozanimod]	–	–
